Experimental data: paper PMC10381533, “Inhibitory Effects of the Fungal Pigment Rubiginosin C on Hyphal and Biofilm Formation in Candida albicans and Candida auris” (Journal of Fungi, 2023)

Legend:
[1] = test system: C. auris [DSM 21092] biofilm; test: Effects on C. auris biofilms of various ages (2 h, 12 h, 24 h), crystal violet; assay type: cell-based, Candida auris
Method: The turbidity of C. auris [DSM 21092] dispersion was measured at 280 nm and diluted to the turbidity of a 0.5 McFarland standard. C. auris was cultured in RPMI 1640 medium supplemented with […] MOPS (37 °C, 150 rpm, 2 h, 12 h, 24 h) in 96-well non-tissue microtiter plates (Falcon no. 351172, Thermo Fisher Scientific). After incubation, C. auris biofilms of various ages (2 h, 12 h, 24 h) were washed once by PBS buffer and treated (37 °C, 150 rpm, 24 h) with serial diluted Rub C (250–0.02 μg/mL) in fresh RPMI 1640 medium supplemented with […] MOPS. Samples of each time point were further processed and evaluated by a microtiter plate reader, as described above.

[2] = test system: preformed S. aureus biofilm; test: Dispersal effect on preformed S. aureus biofilm; assay type: cell-based, Staphylococcus aureus; settings: 250 µg/mL
Method: compounds (250–2 μg/mL) in CASO with 4% glucose broth. The inhibition of biofilm formation was evaluated by staining with 150 μL of 0.1% crystal violet (CV; Thermo Fisher) following previously established protocols. In the next step, the supernatant of the 96-well plate was discarded and the wells were rinsed once with PBS buffer. The remaining biofilms were stained at room temperature for 15 min, rinsed three times with PBS buffer, and finally dissolved in 150 μL ethanol (95%). The absorbance of the resulting solution at 530 nm was quantified using a plate reader (Synergy 2, BioTek). Methanol (2.5%) and microporenic acid A (MAA) (250–2 μg/mL) were used as negative and positive controls. Standard deviations (SD) of two repeats with duplicates were 10% or less. […]
Table S2: Selected azaphilones were tested against the formation of biofilm of S. aureus, P. aeruginosa as well as C. auris and dispersal effect on preformed biofilm of S. aureus compared to solvent control (= 0%), respectively. SDs are shown as ±SD.
Compounds Strains Concentrations [µg/mL] […]

SMILES | biofilm attachment compared to solvent control (=0%) ([1]; 2 h old C. auris biofilm, 2 µg/mL) [%] | biofilm attachment compared to solvent control (=0%) ([1]; 2 h old C. auris biofilm, 3.9 µg/mL) [%] | biofilm attachment compared to solvent control (=0%) ([1]; 2 h old C. auris biofilm, 7.8 µg/mL) [%] | biofilm attachment compared to solvent control (=0%) ([1]; 2 h old C. auris biofilm, 15.6 µg/mL) [%] | biofilm attachment compared to solvent control (=0%) ([1]; 2 h old C. auris biofilm, 31.3 µg/mL) [%] | biofilm attachment compared to solvent control (=0%) ([1]; 2 h old C. auris biofilm, 62.5 µg/mL) [%] | biofilm attachment compared to solvent control (=0%) ([1]; 12 h old C. auris biofilm, 2 µg/mL) [%] | biofilm attachment compared to solvent control (=0%) ([1]; 12 h old C. auris biofilm, 3.9 µg/mL) [%] | biofilm attachment compared to solvent control (=0%) ([1]; 12 h old C. auris biofilm, 7.8 µg/mL) [%] | biofilm attachment compared to solvent control (=0%) ([1]; 12 h old C. auris biofilm, 15.6 µg/mL) [%] | biofilm attachment compared to solvent control (=0%) ([1]; 12 h old C. auris biofilm, 31.3 µg/mL) [%] | biofilm attachment compared to solvent control (=0%) ([1]; 12 h old C. auris biofilm, 62.5 µg/mL) [%] | biofilm attachment compared to solvent control (=0%) ([1]; 24 h old C. auris biofilm, 2 µg/mL) [%] | biofilm attachment compared to solvent control (=0%) ([1]; 24 h old C. auris biofilm, 3.9 µg/mL) [%] | biofilm attachment compared to solvent control (=0%) ([1]; 24 h old C. auris biofilm, 7.8 µg/mL) [%] | biofilm attachment compared to solvent control (=0%) ([1]; 24 h old C. auris biofilm, 15.6 µg/mL) [%] | biofilm attachment compared to solvent control (=0%) ([1]; 24 h old C. auris biofilm, 31.3 µg/mL) [%] | biofilm attachment compared to solvent control (=0%) ([1]; 24 h old C. auris biofilm, 62.5 µg/mL) [%] | dispersal effect on preformed biofilm of S. aureus compared to solvent control (= 0%) [2] [%]
C[C@@H]1[C@H](O)[C@@H](C)/C=C/C=C/CC/C=C/C=C/C=C/C=C/C(O[C@H]2O[C@H](C)[C@@H](O)[C@H](N)[C@@H]2O)CC2O[C@](O)(CC(O)C(O)CCC(O)CC(O)CC(O)CC(=O)O[C@H]1C)CC(O)C2C(=O)O (stereo partly shown) [Nystatin, nystatin] | 84 ±25 | 39 ±10 | 58 ±16 | 53 ±10 | 50 ±10 | 47 ±8 | 96 ±12 | 64 ±12 | 49 ±10 | 43 ±6 | 41 ±9 | 45 ±8 | 93 ±28 | 48 ±2 | 51 ±9 | 49 ±5 | 50 ±10 | 46 ±5 | 
CC(=O)OC/C=C/C1=CC2=C(CO1)C(=O)[C@@](C)(OC(=O)c1c(C)cc(O)cc1O)C(=O)/C2=C\C=C\C1=CC2=C(CO1)C(=O)[C@@](C)(OC(=O)c1c(C)cc(O)cc1O)[C@@H](O)C2 [Rut B, rutilin B] |  |  |  |  |  |  |  |  |  |  |  |  |  |  |  |  |  |  | 51 ±8
